Assays:
[1] = target: hJAK2 (Homo sapiens (Human), UniProt O60674); experiment: hJAK2 LANCE TR-FRET enzymatic assay; type: biochemical; conditions: read-out: JAK2 IC50
[2] = target: IKKε (Homo sapiens (Human), UniProt Q14164); experiment: IKKε TR-FRET enzymatic assay; type: biochemical; conditions: read-out: IKKe IC50
[3] = target: TBK1 (Homo sapiens (Human), UniProt Q9UHD2); experiment: TBK1 TR-FRET enzymatic assay;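 further: phosphorylation of a biotinylated Ser/Thr peptide by purified full-length recombinant TBK1, read by TR-FRET after 240 min at 25 °C, IC50 is the geometric mean of at least four runs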
Chain of TBK1 (Q9UHD2 whole entry): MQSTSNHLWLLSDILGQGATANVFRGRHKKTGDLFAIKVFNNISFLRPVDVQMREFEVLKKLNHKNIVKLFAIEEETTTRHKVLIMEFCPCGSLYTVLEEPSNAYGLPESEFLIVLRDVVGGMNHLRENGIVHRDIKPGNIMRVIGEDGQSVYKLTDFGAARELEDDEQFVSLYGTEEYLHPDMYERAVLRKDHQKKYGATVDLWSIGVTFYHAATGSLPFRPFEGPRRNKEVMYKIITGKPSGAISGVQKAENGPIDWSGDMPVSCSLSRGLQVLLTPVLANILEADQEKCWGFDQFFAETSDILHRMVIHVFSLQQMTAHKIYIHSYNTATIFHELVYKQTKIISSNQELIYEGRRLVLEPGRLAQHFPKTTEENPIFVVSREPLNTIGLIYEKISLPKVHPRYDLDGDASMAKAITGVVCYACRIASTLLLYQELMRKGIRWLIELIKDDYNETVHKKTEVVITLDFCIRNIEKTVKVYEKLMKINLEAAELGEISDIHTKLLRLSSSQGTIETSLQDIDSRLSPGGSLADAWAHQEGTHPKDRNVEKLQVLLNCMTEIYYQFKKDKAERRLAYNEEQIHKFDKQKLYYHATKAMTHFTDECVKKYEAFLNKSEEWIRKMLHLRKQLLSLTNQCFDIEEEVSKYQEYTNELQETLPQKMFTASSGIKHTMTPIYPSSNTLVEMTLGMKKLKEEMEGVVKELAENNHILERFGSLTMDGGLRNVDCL

Chain of IKKε (Q14164 whole entry): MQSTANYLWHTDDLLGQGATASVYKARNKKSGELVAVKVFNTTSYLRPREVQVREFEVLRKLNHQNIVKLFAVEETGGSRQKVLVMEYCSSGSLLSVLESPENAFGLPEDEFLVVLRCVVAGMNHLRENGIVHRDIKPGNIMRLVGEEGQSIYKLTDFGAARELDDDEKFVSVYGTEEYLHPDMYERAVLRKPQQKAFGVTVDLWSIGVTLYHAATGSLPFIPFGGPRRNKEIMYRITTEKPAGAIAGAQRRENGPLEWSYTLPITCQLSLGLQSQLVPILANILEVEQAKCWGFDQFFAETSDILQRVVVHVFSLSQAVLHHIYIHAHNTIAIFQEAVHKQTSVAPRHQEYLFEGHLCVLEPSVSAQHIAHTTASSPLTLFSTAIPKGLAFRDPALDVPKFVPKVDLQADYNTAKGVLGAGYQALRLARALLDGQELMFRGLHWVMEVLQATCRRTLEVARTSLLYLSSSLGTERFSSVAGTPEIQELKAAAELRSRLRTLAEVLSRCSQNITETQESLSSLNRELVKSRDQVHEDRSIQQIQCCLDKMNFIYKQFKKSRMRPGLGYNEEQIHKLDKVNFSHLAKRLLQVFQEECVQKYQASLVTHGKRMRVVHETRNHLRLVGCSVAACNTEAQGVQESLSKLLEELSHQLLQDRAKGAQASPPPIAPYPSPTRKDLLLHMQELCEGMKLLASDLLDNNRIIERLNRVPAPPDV
Chain of hJAK2 (O60674 whole entry): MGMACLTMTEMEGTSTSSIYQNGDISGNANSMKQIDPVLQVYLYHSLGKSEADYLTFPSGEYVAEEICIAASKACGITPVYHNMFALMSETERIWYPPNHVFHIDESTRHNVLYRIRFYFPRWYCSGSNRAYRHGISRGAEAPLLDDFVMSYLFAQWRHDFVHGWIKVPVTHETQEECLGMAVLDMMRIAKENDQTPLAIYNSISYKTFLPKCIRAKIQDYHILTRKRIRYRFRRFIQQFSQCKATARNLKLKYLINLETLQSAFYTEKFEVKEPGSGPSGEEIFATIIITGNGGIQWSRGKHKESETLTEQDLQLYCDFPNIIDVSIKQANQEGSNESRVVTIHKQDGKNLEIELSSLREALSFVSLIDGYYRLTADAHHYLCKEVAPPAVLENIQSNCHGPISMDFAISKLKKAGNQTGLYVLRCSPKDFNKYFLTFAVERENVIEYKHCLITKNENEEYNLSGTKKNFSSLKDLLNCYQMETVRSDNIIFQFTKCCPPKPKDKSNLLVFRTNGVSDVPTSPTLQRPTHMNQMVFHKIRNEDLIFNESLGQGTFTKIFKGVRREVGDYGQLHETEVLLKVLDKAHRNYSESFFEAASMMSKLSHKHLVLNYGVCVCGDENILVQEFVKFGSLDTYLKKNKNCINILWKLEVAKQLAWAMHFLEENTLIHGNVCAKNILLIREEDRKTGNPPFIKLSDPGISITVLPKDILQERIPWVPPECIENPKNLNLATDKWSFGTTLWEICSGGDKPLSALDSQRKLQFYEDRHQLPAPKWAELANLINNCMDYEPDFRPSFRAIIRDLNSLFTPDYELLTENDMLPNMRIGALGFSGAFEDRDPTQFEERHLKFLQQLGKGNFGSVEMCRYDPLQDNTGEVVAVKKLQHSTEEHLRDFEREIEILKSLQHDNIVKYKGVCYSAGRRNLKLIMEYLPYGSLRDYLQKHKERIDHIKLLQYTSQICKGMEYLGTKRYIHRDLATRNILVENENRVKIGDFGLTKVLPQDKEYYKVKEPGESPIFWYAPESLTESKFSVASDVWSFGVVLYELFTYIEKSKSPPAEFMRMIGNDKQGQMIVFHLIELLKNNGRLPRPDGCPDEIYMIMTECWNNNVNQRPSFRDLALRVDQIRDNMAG

IC50 [1] | IC50 [2] | IC50 [3] | SMILES
128 nM | 8 nM | 3 nM | COc1cc(Nc2ncnc(-c3ccc(O[C@@H]4CCN(C(=O)CO)C4)c(C#N)c3)n2)ccc1N1CCN(C2COC2)CC1 [Example 22, (R)-2-((1-(2-hydroxyacetyl)pyrrolidin-3-yl)oxy)-5-(4-((3-methoxy-4-(4-(oxetan-3-yl)piperazin-1-yl)phenyl)amino)-1,3,5-triazin-2-yl)benzonitrile]
> 1000 nM | 10 nM | 6 nM | C[C@H](O)C(=O)N1CCC(Oc2ccc(-c3ncnc(Nc4ccc(C5CCN(C6COC6)CC5)cc4)n3)cc2C#N)CC1 [Example 23, (S)-2-((1-(2-hydroxypropanoyl)piperidin-4-yl)oxy)-5-(4-((4-(1-(oxetan-3-yl)piperidin-4-yl)phenyl)amino)-1,3,5-triazin-2-yl)benzonitrile]
602 nM | 2 nM | 1 nM | COc1cc(Nc2ncnc(-c3ccc(OC4CCOCC4)c(C#N)c3)n2)cc(OC)c1OC [Example 24, 2-((tetrahydro-2H-pyran-4-yl)oxy)-5-(4-((3,4,5-trimethoxyphenyl)amino)-1,3,5-triazin-2-yl)benzonitrile]
988 nM | 7 nM | 2 nM | N#Cc1cc(-c2ncnc(Nc3ccc(N4CCN(C5COC5)CC4)c(F)c3)n2)ccc1OC1CCOCC1 [Example 27, 5-(4-((3-fluoro-4-(4-(oxetan-3-yl)piperazin-1-yl)phenyl)amino)-1,3,5-triazin-2-yl)-2-((tetrahydro-2H-pyran-4-yl)oxy)benzonitrile]
583 nM | 529 nM | 225 nM | N#Cc1cc(-c2ncnc(Nc3ccc(N4CCN(C5COC5)CC4)cc3)n2)ccc1N1CCCC1=O [Example 28, 5-[4-[4-[4-(oxetan-3-yl)piperazin-1-yl]anilino]-1,3,5-triazin-2-yl]-2-(2-oxopyrrolidin-1-yl)benzonitrile]
> 1000 nM | 20 nM | 9 nM | COc1cc(Nc2ncnc(-c3ccc(OC4CCOCC4)c(C#N)c3)n2)ccc1OC(F)F [Example 31, 5-(4-((4-(difluoromethoxy)-3-methoxyphenyl)amino)-1,3,5-triazin-2-yl)-2-((tetrahydro-2H-pyran-4-yl)oxy)benzonitrile]
68 nM | 2 nM | 1 nM | COc1cc(Nc2ncnc(-c3ccc(OC4CCOCC4)c(C#N)c3)n2)ccc1N1CCN(C(C)=O)CC1 [Example 32, 5-(4-((4-(4-acetylpiperazin-1-yl)-3-methoxyphenyl)amino)-1,3,5-triazin-2-yl)-2-((tetrahydro-2H-pyran-4-yl)oxy)benzonitrile]
59 nM | 18 nM | 4 nM | COc1cc(Nc2ncnc(-c3ccc(OC4CCS(=O)(=O)CC4)c(C#N)c3)n2)ccc1N1CCN(C2COC2)CC1 [Example 33, 2-((1,1-dioxidotetrahydro-2H-thiopyran-4-yl)oxy)-5-(4-((3-methoxy-4-(4-(oxetan-3-yl)piperazin-1-yl)phenyl)amino)-1,3,5-triazin-2-yl)benzonitrile]
> 1000 nM | 45 nM | 12 nM | N#Cc1cc(-c2ncnc(Nc3ccc(N4CCN(C5COC5)CC4)cc3)n2)ccc1OC1CCCOC1 (stereo not drawn) [Example 34, 5-(4-((4-(4-(oxetan-3-yl)piperazin-1-yl)phenyl)amino)-1,3,5-triazin-2-yl)-2-((tetrahydro-2H-pyran-3-yl)oxy)benzonitrile]
166 nM | 29 nM | 7 nM | N#Cc1cc(-c2ncnc(Nc3ccc(N4CCN(C5COC5)CC4)cc3)n2)ccc1N1CC(O)C1 [Example 35, 2-(3-hydroxyazetidin-1-yl)-5-(4-((4-(4-(oxetan-3-yl)piperazin-1-yl)phenyl)amino)-1,3,5-triazin-2-yl)benzonitrile]
> 1000 nM | 12 nM | 10 nM | N#Cc1cc(Nc2ncnc(-c3ccc(OC4CCOCC4)c(C#N)c3)n2)ccc1OC1CCOCC1 [Example 36, 5-((4-(3-cyano-4-((tetrahydro-2H-pyran-4-yl)oxy)phenyl)-1,3,5-triazin-2-yl)amino)-2-((tetrahydro-2H-pyran-4-yl)oxy)benzonitrile]
> 1000 nM | 6 nM | 3 nM | N#Cc1cc(-c2ncnc(Nc3ccc(N4CCN(C5COC5)CC4)c(C#N)c3)n2)ccc1OC1CCOCC1 [Example 38, 5-((4-(3-cyano-4-((tetrahydro-2H-pyran-4-yl)oxy)phenyl)-1,3,5-triazin-2-yl)amino)-2-(4-(oxetan-3-yl)piperazin-1-yl)benzonitrile]
> 1000 nM | 35 nM | 6 nM | C=CC(=O)Nc1ccc(Nc2ncnc(-c3ccc(OC4CCOCC4)c(C#N)c3)n2)cc1 [Example 39, N-(4-((4-(3-cyano-4-((tetrahydro-2H-pyran-4-yl)oxy)phenyl)-1,3,5-triazin-2-yl)amino)phenyl)acrylamide]
> 1000 nM | 23 nM | 6 nM | CC(C)(O)c1ccc(Nc2ncnc(-c3ccc(OC4CCOCC4)c(C#N)c3)n2)cc1 [Example 40, 5-(4-((4-(2-hydroxypropan-2-yl)phenyl)amino)-1,3,5-triazin-2-yl)-2-((tetrahydro-2H-pyran-4-yl)oxy)benzonitrile]
> 1000 nM | 110 nM | 35 nM | CNC(=O)N1CCC(Oc2ccc(-c3ncnc(Nc4ccc(N5CCN(C6COC6)CC5)cc4)n3)cc2C#N)CC1 [Example 41, 4-(2-cyano-4-(4-((4-(4-(oxetan-3-yl)piperazin-1-yl)phenyl)amino)-1,3,5-triazin-2-yl)phenoxy)-N-methylpiperidine-1-carboxamide]
24 nM | 71 nM | 35 nM | N#Cc1cc(-c2ncnc(Nc3ccc(N4CCOCC4)cc3)n2)ccc1NC(=O)C1CC1 [Example 42, N-(2-cyano-4-(4-((4-morpholinophenyl)amino)-1,3,5-triazin-2-yl)phenyl)cyclopropanecarboxamide]
> 1000 nM | 15 nM | 7 nM | N#Cc1cc(-c2ncnc(Nc3ccc(N4CCN(C5COC5)CC4)nc3)n2)ccc1OC1CCOCC1 [Example 43, 5-(4-((6-(4-(oxetan-3-yl)piperazin-1-yl)pyridin-3-yl)amino)-1,3,5-triazin-2-yl)-2-((tetrahydro-2H-pyran-4-yl)oxy)benzonitrile]
> 1000 nM | 243 nM | 202 nM | CC(C)(O)C(=O)N1CCC(Oc2ccc(-c3ncnc(Nc4ccc(N5CCN(C6COC6)CC5)cc4)n3)cc2C#N)CC1 [Example 45, 2-((1-(2-hydroxy-2-methylpropanoyl)piperidin-4-yl)oxy)-5-(4-((4-(4-(oxetan-3-yl)piperazin-1-yl)phenyl)amino)-1,3,5-triazin-2-yl)benzonitrile]
670 nM | 9 nM | 3 nM | CC(C)NC(=O)c1ccc(Nc2ncnc(-c3ccc(OC4CCOCC4)c(C#N)c3)n2)cc1 [Example 46, 4-((4-(3-cyano-4-((tetrahydro-2H-pyran-4-yl)oxy)phenyl)-1,3,5-triazin-2-yl)amino)-N-isopropylbenzamide]
811 nM | 14 nM | 2 nM | CC(C)(O)c1cccc(Nc2ncnc(-c3ccc(OC4CCOCC4)c(C#N)c3)n2)c1 [Example 47, 5-(4-((3-(2-hydroxypropan-2-yl)phenyl)amino)-1,3,5-triazin-2-yl)-2-((tetrahydro-2H-pyran-4-yl)oxy)benzonitrile]
> 1000 nM | 31 nM | 3 nM | N#Cc1cc(-c2ncnc(Nc3cccc(C(O)C(F)(F)F)c3)n2)ccc1OC1CCOCC1 (stereo not drawn) [Example 48, 2-((tetrahydro-2H-pyran-4-yl)oxy)-5-(4-((3-(2,2,2-trifluoro-1-hydroxyethyl)phenyl)amino)-1,3,5-triazin-2-yl)benzonitrile]
436 nM | 7 nM | 2 nM | N#Cc1cc(-c2ncnc(Nc3ccc(N4CCOCC4)cc3)n2)ccc1OC1CCOCC1 [Example 49, 5-(4-((4-morpholinophenyl)amino)-1,3,5-triazin-2-yl)-2-((tetrahydro-2H-pyran-4-yl)oxy)benzonitrile]
408 nM | 79 nM | 26 nM | N#Cc1cc(-c2ncnc(Nc3ccc(N4CCN(C5COC5)CC4)cc3)n2)ccc1OC1CCN(C(=O)CNC=O)CC1 [Example 51, N-(2-(4-(2-cyano-4-(4-((4-(4-(oxetan-3-yl)piperazin-1-yl)phenyl)amino)-1,3,5-triazin-2-yl)phenoxy)piperidin-1-yl)-2-oxoethyl)formamide]
491 nM | 223 nM | 65 nM | CC(=O)NCC(=O)N1CCC(Oc2ccc(-c3ncnc(Nc4ccc(N5CCN(C6COC6)CC5)cc4)n3)cc2C#N)CC1 [Example 52, N-(2-(4-(2-cyano-4-(4-((4-(4-(oxetan-3-yl)piperazin-1-yl)phenyl)amino)-1,3,5-triazin-2-yl)phenoxy)piperidin-1-yl)-2-oxoethyl)acetamide]
261 nM | 18 nM | 5 nM | N#Cc1cc(-c2ncnc(Nc3ccc(N4CCOCC4)cc3)n2)ccc1N1CCCC1 [Example 53, 5-(4-((4-morpholinophenyl)amino)-1,3,5-triazin-2-yl)-2-(pyrrolidin-1-yl)benzonitrile]
> 1000 nM | 4 nM | 2 nM | N#Cc1cc(-c2ncnc(Nc3ccc(C4CCN(C5COC5)CC4)cc3)n2)ccc1OC1CCOCC1 [Example 54, 5-(4-((4-(1-(oxetan-3-yl)piperidin-4-yl)phenyl)amino)-1,3,5-triazin-2-yl)-2-((tetrahydro-2H-pyran-4-yl)oxy)benzonitrile]

SMILES | IC50 [1] | IC50 [2] | IC50 [3]
N#Cc1cc(-c2ncnc(Nc3ccc(C(N)=O)cc3)n2)ccc1OC1CCOCC1 [Example 55] | > 1000 nM | 5 nM | 2 nM

From US10040781B2, “Tank-binding kinase inhibitor compounds” (Gilead Sciences, Inc., priority 2014, dated 2018)
